Data from US8247211B2, “Glycopeptide antibiotics” (American Cyanamid Company, priority 2001, dated 2012).
≈ marks a conversion by molar mass, not a printed value.

How the values were obtained:
Assay in all cases: In vitro antibacterial evaluation: minimum inhibitory concentration (MIC), broth dilution method
Type in all cases: cell-based
[1] = tested on: Enterococcus sp.
How it was run: (§1)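 MIC read as lowest drug level preventing visible growth. Organisms at 5×10^5 CFU/mL were exposed to a 64-0.06 μg/mL dilution series in Muller-Hinton II […] following NCCLS broth dilution standard M7-A2.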

[2] = tested on: Escherichia coli
How it was run: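 Test strains, among them recent clinical isolates carrying methicillin, penicillin and/or vancomycin resistance, were inoculated at 5×10^5 CFU/mL. A broth dilution series spanning 64-0.06 μg/mL in Muller-Hinton II […] (NCCLS M7-A2) defined the MIC as the lowest growth-inhibiting concentration.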

[3] = tested on: Staphylococcus sp.; settings: broth dilution, 18 hours at 35° C.
How it was run: as §1

[4] = tested on: Streptococcus sp.
How it was run: as §1

[5] = broth dilution, inoculum 5×10^5 CFU/mL, 18 hours at 35° C.

MIC Enterococcus avium (GC 4558) [1, 5]: 8 µg/mL (≈ 5.46 µM)
MIC Enterococcus faecalis (ATCC 29212) [1, 5]: 8 µg/mL (≈ 5.46 µM)
MIC Enterococcus faecalis (GC 2242) [1, 5]: 4 µg/mL (≈ 2.73 µM)
MIC Enterococcus faecalis (GC 2691) [1, 5]: 8 µg/mL (≈ 5.46 µM)
MIC Enterococcus faecalis (GC 3059) [1, 5]: 8 µg/mL (≈ 5.46 µM)
MIC Enterococcus faecalis (GC 4552) [1, 5]: 8 µg/mL (≈ 5.46 µM)
MIC Enterococcus faecalis (GC 4553) [1, 5]: 8 µg/mL (≈ 5.46 µM)
MIC Enterococcus faecalis (GC 4554) [1, 5]: 16 µg/mL (≈ 10.9 µM)
MIC Enterococcus faecalis (GC 6189) [1, 5]: 4 µg/mL (≈ 2.73 µM)
MIC Enterococcus faecium (GC 2243) [1, 5]: 8 µg/mL (≈ 5.46 µM)
MIC Enterococcus faecium (GC 4556) [1, 5]: 8 µg/mL (≈ 5.46 µM)
MIC Enterococcus faecium (GC 4557) [1, 5]: 4 µg/mL (≈ 2.73 µM)
MIC Enterococcus faecalis (ATCC 29212) ([1]; strain ATCC 29212): 8 µg/mL (≈ 5.46 µM)
MIC Enterococcus faecalis (GC 2242) ([1]; strain GC 2242): 4 µg/mL (≈ 2.73 µM)
MIC Enterococcus faecium (GC 2243) ([1]; strain GC 2243): 8 µg/mL (≈ 5.46 µM)
MIC Enterococcus faecalis (GC 2691) ([1]; strain GC 2691): 8 µg/mL (≈ 5.46 µM)
MIC Enterococcus faecalis (GC 3059) ([1]; strain GC 3059): 8 µg/mL (≈ 5.46 µM)
MIC Enterococcus faecalis (GC 4552) ([1]; strain GC 4552): 8 µg/mL (≈ 5.46 µM)
MIC Enterococcus faecalis (GC 4553) ([1]; strain GC 4553): 8 µg/mL (≈ 5.46 µM)
MIC Enterococcus faecalis (GC 4554) ([1]; strain GC 4554): 16 µg/mL (≈ 10.9 µM)
MIC Enterococcus faecium (GC 4556) ([1]; strain GC 4556): 8 µg/mL (≈ 5.46 µM)
MIC Enterococcus faecium (GC 4557) ([1]; strain GC 4557): 4 µg/mL (≈ 2.73 µM)
MIC Enterococcus avium (GC 4558) ([1]; strain GC 4558): 8 µg/mL (≈ 5.46 µM)
MIC Enterococcus faecalis (GC 6189) ([1]; strain GC 6189): 4 µg/mL (≈ 2.73 µM)
MIC Escherichia coli (ATCC 25922) ([2]; strain ATCC 25922): >64 µg/mL
MIC Escherichia coli (GC 4559) ([2]; strain GC 4559): 64 µg/mL (≈ 43.7 µM)
MIC Escherichi coli (GC 4560) ([2]; strain GC 4560): 4 µg/mL (≈ 2.73 µM)
MIC Coagulase Negative Staphylococcus (GC 4547) ([3]; 5×10^5 CFU/mL): 4 µg/mL (≈ 2.73 µM)
MIC Coagulase Negative Staphylococcus (GC 4548) ([3]; 5×10^5 CFU/mL): 1 µg/mL (≈ 0.682 µM)
MIC Coagulase Negative Staphylococcus (GC 4549) ([3]; 5×10^5 CFU/mL): 0.5 µg/mL (≈ 0.341 µM)
MIC Coagulase Negative Staphylococcus (GC 4551) ([3]; 5×10^5 CFU/mL): 4 µg/mL (≈ 2.73 µM)
MIC Coagulase Negative Staphylococcus (GC 6257) ([3]; 5×10^5 CFU/mL): 1 µg/mL (≈ 0.682 µM)
MIC Staphylococcus aureus (ATCC 29213) ([3]; 5×10^5 CFU/mL): 8 µg/mL (≈ 5.46 µM)
MIC Staphylococcus aureus (GC 1131) ([3]; 5×10^5 CFU/mL): 4 µg/mL (≈ 2.73 µM)
MIC Staphylococcus aureus (GC 3051) ([3]; 5×10^5 CFU/mL): 16 µg/mL (≈ 10.9 µM)
MIC Staphylococcus aureus (GC 3053) ([3]; 5×10^5 CFU/mL): 8 µg/mL (≈ 5.46 µM)
MIC Staphylococcus aureus (GC 4541) ([3]; 5×10^5 CFU/mL): 8 µg/mL (≈ 5.46 µM)
MIC Staphylococcus aureus (GC 4542) ([3]; 5×10^5 CFU/mL): 16 µg/mL (≈ 10.9 µM)
MIC Staphylococcus aureus (GC 4544) ([3]; 5×10^5 CFU/mL): 8 µg/mL (≈ 5.46 µM)
MIC Staphylococcus aureus (GC 4545) ([3]; 5×10^5 CFU/mL): 4 µg/mL (≈ 2.73 µM)
MIC Staphylococcus aureus-SMITH (GC 4543) ([3]; 5×10^5 CFU/mL): 4 µg/mL (≈ 2.73 µM)
MIC Staphylococcus aureus (ATCC 29213) ([3]; strain ATCC 29213): 8 µg/mL (≈ 5.46 µM)
MIC Staphylococcus aureus (GC 1131) ([3]; strain GC 1131): 4 µg/mL (≈ 2.73 µM)
MIC Staphylococcus aureus (GC 3051) ([3]; strain GC 3051): 16 µg/mL (≈ 10.9 µM)
MIC Staphylococcus aureus (GC 3053) ([3]; strain GC 3053): 8 µg/mL (≈ 5.46 µM)
MIC Staphylococcus aureus (GC 4541) ([3]; strain GC 4541): 8 µg/mL (≈ 5.46 µM)
MIC Staphylococcus aureus (GC 4542) ([3]; strain GC 4542): 16 µg/mL (≈ 10.9 µM)
MIC Staphylococcus aureus-SMITH (GC 4543) ([3]; strain GC 4543): 4 µg/mL (≈ 2.73 µM)
MIC Staphylococcus aureus (GC 4544) ([3]; strain GC 4544): 8 µg/mL (≈ 5.46 µM)
MIC Staphylococcus aureus (GC 4545) ([3]; strain GC 4545): 4 µg/mL (≈ 2.73 µM)
MIC Coagulase Negative Staphylococcus (GC 4547) ([3]; strain GC 4547): 4 µg/mL (≈ 2.73 µM)
MIC Coagulase Negative Staphylococcus (GC 4548) ([3]; strain GC 4548): 1 µg/mL (≈ 0.682 µM)
MIC Coagulase Negative Staphylococcus (GC 4549) ([3]; strain GC 4549): 0.5 µg/mL (≈ 0.341 µM)
MIC Coagulase Negative Staphylococcus (GC 4551) ([3]; strain GC 4551): 4 µg/mL (≈ 2.73 µM)
MIC Coagulase Negative Staphylococcus (GC 6257) ([3]; strain GC 6257): 1 µg/mL (≈ 0.682 µM)
MIC Streptococcus agalactiae (GC 4564) [4, 5]: 0.12 µg/mL (≈ 0.0819 µM)
MIC Streptococcus pneumoniae (ATCC 6301) [4, 5]: <0.06 µg/mL
MIC Streptococcus pneumoniae (GC 1894) [4, 5]: <0.06 µg/mL
MIC Streptococcus pneumoniae (GC 4565) [4, 5]: <0.06 µg/mL
MIC Streptococcus pyogenes (GC 4563) [4, 5]: 0.12 µg/mL (≈ 0.0819 µM)
MIC Streptococcus pneumoniae (ATCC 6301) ([4]; strain ATCC 6301): <0.06 µg/mL
MIC Streptococcus pneumoniae (GC 1894) ([4]; strain GC 1894): <0.06 µg/mL
MIC Streptococcus pyogenes (GC 4563) ([4]; strain GC 4563): 0.12 µg/mL (≈ 0.0819 µM)
MIC Streptococcus agalactiae (GC 4564) ([4]; strain GC 4564): 0.12 µg/mL (≈ 0.0819 µM)
MIC Streptococcus pneumoniae (GC 4565) ([4]; strain GC 4565): <0.06 µg/mL
Compound: CC(c1ccccc1)C1NC(=O)CNC(=O)C(CO)NC(=O)C(C(O)C2CNC(=N)N2C2OC(CO)C(O)C(O)C2O)NC(=O)C(C(O)C2CNC(=N)N2)NC(=O)C(Cc2ccc(OC3OC(CO)C(OC4OC5COC(c6ccc(-c7ccsc7)cc6)OC5C(O)C4O)C(O)C3O)cc2)NC1=O (stereo not drawn) [Example 164, Cyclo[glycyl-β-methylphenylalanyl-O-[4-O-[4,6-O-[4-(3-thienyl)benzylidene]hexopyranosyl]-hexopyranosyl]tyrosyl-3-(2-iminoimidazolidin-4-yl)seryl-3-(3-hexopyranosyl-2-iminoimidazolidin-4-yl)serylseryl]]
MIC Staphylococcus haemolyticus (GC 4546) ([3]; 5×10^5 CFU/mL): 4 µg/mL (≈ 2.73 µM)
MIC Staphylococcus haemolyticus (GC 4546) ([3]; strain GC 4546): 4 µg/mL (≈ 2.73 µM)
